The source of these data is article PMC6691587, “New CXCR1/CXCR2 inhibitors represent an effective treatment for kidney or head and neck cancers sensitive or refractory to reference treatments” (Theranostics, 2019).

One experiment has as its system OCI-AML3. Description: XTT cell viability assay, OCI-AML3 AML cells. Type of experiment: cell-based, human. The settings on record: Homo sapiens, OCI-AML-3, 48 h, SD 10%, mean of three experiments, read-out: IC50 L3 (AML). As to the method:
(§1) Fifty microliters of sodium 3′-[1-phenylaminocarbonyl)-3,4-tetrazolium]-bis(4-methoxy-6-nitro) benzene sulfonic acid hydrate (XTT) reagent was added to each well. The assay is based on the cleavage of the yellow tetrazolium salt XTT to form an orange formazan dye by metabolically active cells. This bio-reduction occurs in viable cells only and is related to NAD(P)H production through glycolysis. Therefore, the amount of formazan dye measured at 490 nm directly correlated with the number of metabolically active cells reflecting cell proliferation and viability. Each assay was performed in quadruplicate.

For a further experiment, the system named is CAL33. Description: XTT cell viability assay, CAL33 HNSCC cells. The class given is cell-based, human. The settings on record: Homo sapiens, CAL-33; XTT assay, 48 h; SD 10%; mean of three experiments; read-out: IC50 33 (HNSCC). As to the method:
as §1

The subject of the next experiment is OCI-AML2. Kind of experiment: XTT cell viability assay, OCI-AML2 AML cells. Type of experiment: cell-based, human. The settings on record: Homo sapiens, OCI-AML2, 48 h, SD 10%, mean of three experiments, read-out: IC50 L2 (AML). As to the method: as §1
In general terms: Tetrazolium dyes change colour on reduction, which living cells bring about.

The subject of a further experiment is MDA-MD-231. Description: XTT cell viability assay, breast cancer cells. Type of experiment: cell-based, human. The settings on record: Homo sapiens, 48 h, SD 10%, mean of three experiments. As to the method: as §1
The subject of another experiment is Molm14. Description: XTT cell viability assay, Molm14 AML cells. Type of experiment: cell-based, human. The settings on record: Homo sapiens, MOLM-14, 48 h, SD 10%, mean of three experiments. As to the method: as §1
Another experiment deals with CAL27. Kind of experiment: XTT cell viability assay, CAL27 HNSCC cells. The class given is cell-based, human. The settings on record: Homo sapiens, CAL-27; XTT assay, 48 h; SD 10%; mean of three experiments; read-out: IC50 27 (HNSCC). As to the method:
as §1

The subject of a further experiment is K562. Kind of experiment: XTT cell viability assay, K562 CML cells. Type of experiment: cell-based, human. The settings on record: Homo sapiens, K562, 48 h, SD 10%, mean of three experiments. As to the method: as §1
The next experiment deals with Molm13. Description: XTT cell viability assay, Molm13 AML cells. Type of experiment: cell-based, human. The settings on record: Homo sapiens, MOLM-13, 48 h, SD 10%, mean of three experiments. As to the method: as §1
The subject of experiment [1] is panel of human tumor cell lines. Kind of experiment: XTT screening on a panel of tumor cell lines. The settings on record: Homo sapiens. The class given is cell-based. As to the method:
as §1

The next experiment deals with 786-O. Kind of experiment: XTT cell viability assay, 786-O RCC cells. The class given is cell-based, human. The settings on record: Homo sapiens, 786-0; XTT assay, 48 h; SD 10%; mean of three experiments; read-out: IC50 786 (Kidney RCC). As to the method: as §1
For the next experiment, the system named is SKM1. Description: XTT cell viability assay, SKM1 MDS cells. The class given is cell-based, human. The settings on record: Homo sapiens, SKM-1, 48 h, SD 10%, mean of three experiments, read-out: IC50 SK (MDS). As to the method:
as §1

The next experiment has as its system A498. Description: XTT cell viability assay, A498 RCC cells. The settings on record: Homo sapiens, A498; XTT assay, 48 h; SD 10%; mean of three experiments; read-out: IC50 498 (Kidney RCC). The class given is cell-based, human. As to the method:
as §1

The next experiment relates to RCC4. Description: XTT cell viability assay, RCC4 RCC cells. The settings on record: Homo sapiens, RCC4, 48 h, SD 10%, mean of three experiments, read-out: IC50 R4 (Kidney RCC). The class given is cell-based, human. As to the method:
as §1

Where [2] appears, read: read-out: IC50 values for several cancer cell lines.

Where two headings read alike, the source gives them in different places.

For the molecule `CCOc1ccc2nc(NC(=O)Nc3ccccc3C)sc2c1` [C30], the concentration for half-maximal inhibition (IC50) with OCI-AML3 was 7 µM; in the experiment on CAL33, 15 µM; in the experiment with OCI-AML2, 15 µM; in the experiment with MDA-MD-231 it was 12 µM; in the experiment with Molm14 it was 10 µM; in the experiment with CAL27 it was 5 µM. In addition, the half-inhibitory concentration (IC50) was 4 µM in the experiment on K562; 15 µM in the experiment with Molm13; less than 20 µM in [1] (setting [2]); 15 µM in the experiment on 786-O; 15 µM with SKM1; 15 µM with A498. In addition, the IC50 in the experiment with RCC4 was greater than 25 µM.
For the molecule `O=C(Nc1cccc(Cl)c1)Nc1cccc(Cl)c1` [C9], the half-maximal inhibitory concentration (IC50) with OCI-AML3 was greater than 25 µM; in the experiment on CAL33, 10 µM; with OCI-AML2 it was 20 µM; in the experiment with MDA-MD-231 it was 15 µM; in the experiment with Molm14 it was 20 µM; in the experiment on CAL27, 12 µM. Further, the 50% inhibitory concentration (IC50) in the experiment on K562 was 10 µM; with Molm13 it was greater than 25 µM; in experiment [1] (read-out: IC50 for solid tumors (breast and kidney)), 10 to 20 µM; in the experiment on 786-O, 15 µM; in the experiment with SKM1, greater than 25 µM; in the experiment on A498, 10 µM. Also, the IC50 in the experiment with RCC4 was found to be 15 µM.
As for `O=C(Nc1nc2ccc([N+](=O)[O-])cc2s1)Nc1ccccc1Cl` [C28], the 50% inhibitory concentration (IC50) with OCI-AML3 amounted to 10 µM; with CAL33, 5 µM; in the experiment on OCI-AML2 it was 10 µM; in the experiment on MDA-MD-231, 8 µM; in the experiment with Molm14 it was 10 µM; with CAL27 it was 7 µM. The IC50 was 7 µM in the experiment on K562; 5 µM in the experiment with Molm13; less than 20 µM in experiment [1] (setting [2]); 5 µM with 786-O; 10 µM with SKM1; 5 µM with A498. The concentration for half-maximal inhibition (IC50) in the experiment with RCC4 came to 7 µM.
With `Cc1ccc2nc(NC(=O)Nc3ccccc3Cl)sc2c1` [C25], the concentration for half-maximal inhibition (IC50) was 10 µM in the experiment with OCI-AML3; 10 µM in the experiment with CAL33; greater than 25 µM with OCI-AML2; greater than 25 µM with MDA-MD-231; 10 µM in the experiment with Molm14; 5 µM with CAL27. For the same molecule, the IC50 was 25 µM in the experiment with K562; 15 µM with Molm13; less than 20 µM in experiment [1] (setting [2]); 15 µM in the experiment on 786-O; 25 µM with SKM1; 15 µM with A498. For the same molecule, the half-inhibitory concentration (IC50) with RCC4 is greater than 25 µM.
As to `O=C(Nc1nc2ccccc2[nH]1)Nc1ccccc1Cl` [C14], the IC50 with OCI-AML3, in the experiment on CAL33, in the experiment on OCI-AML2, in the experiment on MDA-MD-231, with Molm14 and in the experiment on CAL27 was greater than 25 µM in each case. For the same molecule, the IC50 in the experiment with K562, with Molm13, in the experiment on 786-O, with SKM1, with A498 and in the experiment with RCC4 was greater than 25 µM each time.
On to `O=C(Nc1ccc(Cl)cc1)Nc1ccc(Cl)cc1` [C10], for which the IC50 in the experiment with OCI-AML3, in the experiment with CAL33, in the experiment with OCI-AML2, with MDA-MD-231, in the experiment on Molm14 and in the experiment with CAL27 was greater than 25 µM throughout. Moreover, the half-inhibitory concentration (IC50) with K562, in the experiment with Molm13, in the experiment with 786-O, with SKM1, in the experiment with A498 and in the experiment on RCC4 was greater than 25 µM throughout.
For `CCOc1ccc2nc(NC(=O)Nc3ccc(OC)cc3)sc2c1` [C33], the IC50 in the experiment with OCI-AML3 was greater than 25 µM; in the experiment on CAL33 it was greater than 25 µM; in the experiment with OCI-AML2 it was greater than 25 µM; with MDA-MD-231, greater than 25 µM; in the experiment on Molm14, 25 µM; in the experiment on CAL27, greater than 25 µM. The half-inhibitory concentration (IC50) in the experiment on K562, in the experiment with Molm13, in the experiment on 786-O, in the experiment on SKM1, in the experiment with A498 and with RCC4 was greater than 25 µM throughout.
Regarding `O=C(Nc1cccc(Cl)c1)Nc1ccc(Cl)cc1Cl` [C5], the IC50 in the experiment on OCI-AML3 was 20 µM; in the experiment with CAL33, 25 µM; in the experiment on OCI-AML2 it was 22 µM; in the experiment with MDA-MD-231, greater than 25 µM; in the experiment on Molm14, 25 µM; in the experiment with CAL27, 15 µM. In addition, the IC50 in the experiment on K562 is 20 µM; in the experiment on Molm13, 20 µM; in the experiment with 786-O, 22 µM; with SKM1, 22 µM; in the experiment on A498, 22 µM; in the experiment with RCC4, 20 µM.
Take `O=C(Nc1ccc(Cl)cc1)Nc1nc2ccccc2s1` [C23]: the IC50 in the experiment on OCI-AML3, in the experiment with CAL33, in the experiment with OCI-AML2, in the experiment with MDA-MD-231, in the experiment on Molm14 and in the experiment with CAL27 was greater than 25 µM in each case. In addition, the concentration for half-maximal inhibition (IC50) was 25 µM with K562; greater than 25 µM in the experiment with Molm13; greater than 25 µM in the experiment with 786-O; greater than 25 µM in the experiment with SKM1; 25 µM with A498; 20 µM in the experiment with RCC4.
For `Cc1ccc2nc(NC(=O)Nc3cccc(Cl)c3)sc2c1` [C26], the IC50 in the experiment with OCI-AML3, in the experiment with CAL33, with OCI-AML2, with MDA-MD-231, in the experiment with Molm14 and with CAL27 was greater than 25 µM throughout. Also, the IC50 in the experiment with K562, in the experiment on Molm13, in the experiment with 786-O, in the experiment with SKM1, with A498 and in the experiment with RCC4 was greater than 25 µM each time.
Take `O=C(Nc1ccccc1Cl)Nc1ccc(Cl)cc1Cl` [C4]: the IC50 with OCI-AML3, with CAL33, in the experiment with OCI-AML2, in the experiment with MDA-MD-231, with Molm14 and in the experiment on CAL27 was greater than 25 µM in each case. For the same molecule, the IC50 in the experiment with K562, with Molm13, in the experiment with 786-O, in the experiment on SKM1, in the experiment with A498 and with RCC4 was greater than 25 µM each time.
As for `Cc1cccc(NC(=O)Nc2nc3ccc(C)cc3s2)c1` [C27], the IC50 in the experiment on OCI-AML3, with CAL33, in the experiment with OCI-AML2, in the experiment with MDA-MD-231, in the experiment with Molm14 and with CAL27 was greater than 25 µM throughout. In addition, the half-inhibitory concentration (IC50) in the experiment with K562, with Molm13, in the experiment on 786-O, in the experiment with SKM1, in the experiment on A498 and in the experiment with RCC4 was greater than 25 µM in each case.
On to `CCOc1ccc2nc(NC(=O)Nc3ccc(C)cc3)sc2c1` [C32], for which the IC50 in the experiment with OCI-AML3, in the experiment with CAL33, with OCI-AML2, in the experiment on MDA-MD-231, in the experiment with Molm14 and in the experiment on CAL27 was greater than 25 µM each time. The half-inhibitory concentration (IC50) in the experiment with K562, with Molm13, in the experiment with 786-O, with SKM1, in the experiment with A498 and in the experiment with RCC4 was greater than 25 µM in each case.
`Cc1ccc(NC(=O)Nc2ccc(Cl)cc2)cc1` [C3]: the concentration for half-maximal inhibition (IC50) with OCI-AML3, with CAL33, in the experiment on OCI-AML2, with MDA-MD-231, with Molm14 and in the experiment on CAL27 was greater than 25 µM each time. In addition, the 50% inhibitory concentration (IC50) with K562, in the experiment with Molm13, in the experiment on 786-O, in the experiment on SKM1, in the experiment on A498 and in the experiment with RCC4 was greater than 25 µM in each case.

Usually IC50 stands for the concentration that gives 50% inhibition.
